Patent US20210047278A1, “E3 UBIQUITIN LIGASE AGONISTS, PHARMACEUTICAL COMPOSITIONS INCLUDING THE E3 UBIQUITIN LIGASE AGONISTS, RELATED METHODS OF USE” (FRED HUTCHINSON CANCER RESEARCH CENTER, priority 2018, published 2021)
Like-named read-outs stand apart in the source and are kept apart here.

What was measured:
Type in all cases: binding
FBW7^ARG+pCycE = biological target: T1, FBW7^ARG+pCycE (Homo sapiens, UniProt Q969H0, R505L); experiment: FBW7^ARG-cyclin E agonist ALPHAscreen (primary PRUN, confirmation CRUN1, dose-response DRUN); conditions: for EC50 / Emax: DRUN dose-response; for Emax: relative to WT-FBW7+pCycE, read-out: FBW7 ACT Averaged Max % Response
T1 construct: GST (TEV site and flexible linker) (N, cleaved yes); made in house; host or cells: SF9 insect cells (baculovirus)
Source text: FBW7^ARG refers to a class of loss-of-function mutations of the of FBW7 ubiquitin ligase that target a key phosphate-binding arginine residue in the FBW7 substrate-binding domain. These mutations are commonly found in human cancers and promote tumorigenesis by impairing the interactions between FBW7 and its substrates, such as cyclin E and Myc. Described herein is a high throughput screen (HTS) to identify agonists, such as small molecules, that augment FBW7^ARG-substrate binding. In an embodiment, the HTS is based on the Amplified Luminescent Proximity Homogenous Assay (ALPHAscreen) because it detects protein-protein interactions with a large dynamic range. ALPHAscreen is a bead-based proximity assay wherein donor beads contain a photosensitizer, phthalocyanine, and acceptor beads contain thioxene, anthracene and rubrenein in sufficient quantities to generate a chemiluminescence/fluorescence reaction (FIG. 4A). Upon excitation with excitation illumination, such as light having a wavelength of 680 nm, of the donor beads, phthalocyanine converts ambient oxygen to singlet oxygen, which can diffuse approximately 200 nm within its 4-microsecond half-life. If an acceptor bead is in close proximity to an excited donor bead, singlet oxygen transfers its energy to the acceptor, resulting in emitted light at a broad bandwidth of −520-620 nm. The HTS-compatible FBW7/cyclin E ALPHAscreen assay described herein uses streptavidin coupled donor beads and Ni-chelate acceptor beads. In this assay, biotinylated cyclin E phosphopeptide and the His-tagged FBW7 mutant protein have high affinity for the donor and acceptor beads, respectively (FIG. 4B). A small molecule that is able to bridge the binding sites of the peptide and the mutant protein (or induce a conformational change that increases affinity of the protein for the peptide) will bring the donor and acceptor beads in close proximity to each other, resulting in an ALPHA signal. As designed, this assay format is a very sensitive, non-radioactive, homogenous “mix-and-read” format that is HT compatible in 384 and 1536 well formats.
In the 384-well screening assay, 10 uL of acceptor beads with 25 nM of the FBW7^ARG (RLFBW7) are dispensed to test wells; acceptor beads with 25 nM of the wt-FBW7 protein (WTFBW7) are dispensed to control wells. Test compounds are then added by pintool transfer and the mixture is incubated for 30 minutes. An additional 10 uL of donor beads with 25 nM cyclin E phosphopeptide is then added to all wells and the plate is incubated for 4 hours before the ALPHA signal is measured.
In preparation for large-scale screening, the assay was miniaturized to a 1536-well format. The miniaturized screen performed outstandingly in all respects. The screen was enhanced with respect to several parameters and assayed its performance using mutant FBW7 and wt-FBW7, as well as non-specific assay agonists. […] For example, the following Z′-scores/FBW7 concentrations were obtained: 6.25 nM/Z′=0.62, 12.5 nm/Z′=0.85, 25.0 nM/Z′=0.84.
1. Add 2.5 uL of RLFBW7/cycE˜P/Ni beads: Final [25 nM/25 nM/10 ug/ml].
2. Add 2.5 uL of WTFBW7/cycE˜P/Ni beads: Final [25 nM/25 nM/10 ug/ml].
4. Add 2.5 uL of SA beads to all wells Final [10 ug/ml],
5. Add 30 nL of compounds,
6. Read ALPHAscreen on Envision
The large-scale FBW7 agonist ALPHAscreen was completed using FBW7^ARG and a phosphorylated cyclin E (pCycE) degron peptide. Wt-FBW7+pCycE-peptide was the “high control”, and Wt-FBW7+unphosph. CycE peptide was the “low control”. The screen was performed on the 645,000-compound Scripps Diversity Library using 1536-well format and drug concentrations of 26.1 μM. An algorithm aided hit identification based on the average percent activation for all compounds and their standard deviation.
A confirmation assay of all 853 compounds in triplicate using a single concentration (26.1 μM). […]

FBW7^ARG (RLFBW7) alone = biological target: T2, FBW7^ARG (RLFBW7) alone (Homo sapiens, UniProt Q969H0, R505L); experiment: Counterscreen 1 ALPHAscreen with FBW7^ARG alone (CSRUN1/DCSRUN1); conditions: dose-response counterscreen; for Emax: read-out: RLFBW7 ACT DCSRUN1 Averaged Max % Response
T2 construct: GST (TEV site and flexible linker) (N, cleaved yes); made in house; host or cells: SF9 insect cells (baculovirus)
Method: (§1) Studies in 384-well format were performed using the ENVISION system. Reagent concentrations (see FIG. 6A), order of addition, pH (see FIG. 6B), and reducing agent were altered with the goal of enhancing the dynamic range between wt-FBW7 (the positive control) and FBW7^ARG (FIG. 6 and not shown). Wt-FBW7 produced a signal 100× greater with phosphorylated cyclin E degron peptide compared with unphosphorylated, which represents the assay's maximum range (FIG. 6C). […] This assay thus detects the residual affinity of the FBW7^ARG-substrate interaction, which, as predicted, is stronger than wt-FBW7 protein with unphosphorylated cyclin E peptide. Concurrent with this primary assay, counter ALPHAscreens were developed which omitted either FBW7 or peptide (to eliminate hits that are general ALPHAscreen agonists), or used an irrelevant phosphopeptide (to eliminate compounds that simply augment binding to phosphopeptides). […]
(§2) The 77 hits were subjected to a dose-response assay in which each compound was tested in triplicate in a 10 point 3-fold dilutional series, to a maximum concentration of approximately 87 μM. Three screens were performed, using FBW7^ARG+pCycE (DRUN), FBW7^ARG (DCSRUN1), or pCycE alone (DCSRUN2). See TABLES 2, 3, and 4, respectively, and FIG. 10A. All of the assays performed extremely well, and threshold of 10% activation (relative to WT-FBW7+pCycE) was set as positive. […] Many hits fell into shared structure cluster ID groups, reinforcing the idea that they function as specific agonists (see below and TABLE 5).

pCycE alone = experiment: Counterscreen 2 ALPHAscreen with cyclin E phosphopeptide alone (CSRUN2/DCSRUN2); conditions: for CyCEP ACT DCSRUN2 Averaged Max % Response: activation relative to WT-FBW7+pCycE, averaged maximum; for EC50: dose-response, triplicate, 10 point 3-fold dilutional series, read-out: CyCEP ACT DCSRUN2 Final EC50
Method: as §1, §2

[1] = raw curve fit, read-out: FBW7 ACT EC50 Curve Fit Raw, Molar
[2] = triplicate, 10 point 3-fold dilution, max approx. 87 μM, read-out: FBW7 ACT Final EC50, Molar
[3] = confirmation assay, triplicate, single concentration 26.1 μM, read-out: FBW7 ACT CRUN1 Avg % Response and Stdev
[4] = primary screen, 1536-well, 26.1 μM, FBW7^ARG + pCycE degron peptide, high control wt-FBW7+pCycE, read-out: FBW7 ACT PRUN % Response
[5] = read-out: RLFBW7 ACT DCSRUN1 Final EC50
[6] = raw curve fit, read-out: RLFBW7 ACT DCSRUN1 EC50 Curve Fit Raw

T2 sequence (Q969H0 64-707 R505L): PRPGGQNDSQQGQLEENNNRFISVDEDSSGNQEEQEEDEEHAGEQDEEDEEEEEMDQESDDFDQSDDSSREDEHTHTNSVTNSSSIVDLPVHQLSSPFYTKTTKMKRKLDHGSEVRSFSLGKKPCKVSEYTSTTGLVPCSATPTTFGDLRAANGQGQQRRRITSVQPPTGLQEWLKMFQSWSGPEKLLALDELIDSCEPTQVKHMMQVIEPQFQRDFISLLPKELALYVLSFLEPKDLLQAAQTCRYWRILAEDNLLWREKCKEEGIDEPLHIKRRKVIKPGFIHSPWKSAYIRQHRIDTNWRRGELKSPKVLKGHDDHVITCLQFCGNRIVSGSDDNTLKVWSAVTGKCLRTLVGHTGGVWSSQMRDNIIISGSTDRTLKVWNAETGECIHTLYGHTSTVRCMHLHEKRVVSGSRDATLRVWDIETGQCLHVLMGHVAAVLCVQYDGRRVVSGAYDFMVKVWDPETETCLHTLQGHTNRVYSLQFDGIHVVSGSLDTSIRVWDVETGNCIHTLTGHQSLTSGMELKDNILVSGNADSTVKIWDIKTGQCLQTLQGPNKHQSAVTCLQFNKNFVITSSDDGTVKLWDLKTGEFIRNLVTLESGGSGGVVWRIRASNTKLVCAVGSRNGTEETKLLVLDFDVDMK
T2 sequence (P63208 2-163 partner): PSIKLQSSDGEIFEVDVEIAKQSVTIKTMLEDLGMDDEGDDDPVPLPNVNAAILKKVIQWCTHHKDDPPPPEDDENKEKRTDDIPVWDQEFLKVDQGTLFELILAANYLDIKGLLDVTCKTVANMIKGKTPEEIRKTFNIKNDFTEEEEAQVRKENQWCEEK
T1 sequence (Q969H0 64-707 R505L): as the sequence (Q969H0 64-707 R505L) above
T1 sequence (P63208 2-163 partner): as the sequence (P63208 2-163 partner) above

Row | SMILES | EC50 (FBW7^ARG+pCycE; [1]) [µM] | Emax (FBW7^ARG+pCycE) [%] | EC50 (FBW7^ARG+pCycE; [2]) [µM] | activation at 26.1 µM (FBW7^ARG+pCycE; [3]) [%] | activation at 26.1 µM (FBW7^ARG+pCycE; [4]) [%] | Emax (FBW7^ARG (RLFBW7) alone) [%] | EC50 (FBW7^ARG (RLFBW7) alone; [5]) [µM] | EC50 (FBW7^ARG (RLFBW7) alone; [6]) [µM] | CyCEP ACT DCSRUN2 Averaged Max % Response (pCycE alone) [%] | EC50 (pCycE alone) [µM]
1 | Cc1ccnc(N2CCC(C(=O)Nc3ccccc3Br)CC2)n1 [SR-01000330228-1] | 0.0482 | 6.46 | > 65.3 | 3.43 ± 0.23 | 2.08 | 0.25 | > 65.3 |  |  | 
2 | Cc1cccc(NC(=O)N2CCC(c3nnc(C4CC4)s3)CC2)c1 [SR-01000922889-1] | 16.5 | 18.3 | > 65.3 | 4.96 ± 0.03 | 3.13 | 0.09 | > 65.3 | 22.5 | 0.23 | > 65.3
3 | COc1ccc(COC(=O)C2=C(C)NC3=C(C(=O)CC(C)(C)C3)C2c2ccccc2)cc1 (centres unmarked) [SR-01000427708-1] | 23.8 | 8.75 | > 62.2 | 5.27 ± 1.17 | 2.58 | 1.53 | > 62.2 | 0.0056 | 1.77 | > 62.2
4 | O=C(Nc1ccc2oc(-c3ccc4ccccc4c3)nc2c1)c1cccc(Cl)c1Cl [SR-01000415504-1] | 0.0458 | 7.3 | > 56.6 | 10.7 ± 0.62 | 1.88 | -0.031 | > 56.6 | 0.136 |  | 
5 | COc1ccc(NC(=O)c2cc(S(=O)(=O)N3CCN(c4ccccn4)CC3)ccc2F)cc1 [SR-01000579121-1] | 0.0032 | 11.6 | > 54.6 | 2.82 ± 0.29 | 1.87 | 1.99 | > 54.6 |  |  | 
6 | CCc1ccc(N2CC(C(=O)NCC(C)(C)CNC(=O)C3CC(=O)N(c4ccc(CC)cc4)C3)CC2=O)cc1 (centres unmarked) [SR-01000537224-1] | 7.1 | 16.5 | > 40.4 | 7.38 ± 0.72 | 4.51 | 2.4 | > 40.4 | 0.0053 |  | 
